In general, melting point refers to the temperature, or range, at which the solid turns liquid.

The structures appear in SMILES notation.

As for `Cc1cc(-c2cc(C(F)(F)F)nn2-c2ccc(S(C)(=O)=O)cn2)ccc1-c1cnn[nH]1` [Example 30], the melting point is 189 °C.

For the molecule `Cc1cc(-c2cc(C(F)(F)F)nn2-c2ccc(S(C)(=O)=O)cn2)ccc1-c1nn[nH]n1` [Example 29], the melting point was in the range of 241 to 242 °C.

For `Cc1nc(-c2ccc(-c3cc(C(F)(F)F)nn3-c3ccc(S(C)(=O)=O)nc3)cc2)cs1` [Example 32], the melting point was found to be 176.9 °C.

In the case of `CCc1cc(-c2cc(C(F)(F)F)nn2-c2ccc(S(C)(=O)=O)cn2)ccc1-c1cscn1` [Example 23], the melting point was 165.8 °C.

`CS(=O)(=O)c1ccc(-n2nc(C(F)(F)F)cc2-c2ccc(-c3ccco3)cc2)cn1` [Example 1, 5-[4-(2-Furyl)phenyl]-1-[2-(methylsulfonylpyridin)-5-yl]-3-trifluoromethyl-1H-pyrazole] displayed a melting point of 106 to 109 °C.

Consider `Cc1cc(-c2cc(C(F)(F)F)nn2-c2ccc(S(C)(=O)=O)cn2)ccc1-c1cocn1` [Example 9], for which the melting point fell in the range of 154 to 155 °C.

`CS(=O)(=O)c1ccc(-n2nc(C(F)(F)F)cc2-c2ccc(-c3ccc(Cl)s3)cc2)cn1` [Example 34] displayed a melting point of 155 to 156 °C.

`CS(=O)(=O)c1ccc(-n2nc(C(F)(F)F)cc2-c2ccc(-c3cscn3)c(Cl)c2)nc1` [Example 19] had a melting point of 175.6 °C.

As to `CS(=O)(=O)c1ccc(-n2nc(C(F)(F)F)cc2-c2ccc(-c3cscn3)c(Cl)c2)cn1` [Example 17], the melting point lay within 95 to 100 °C.

Molecule `COC(=O)c1cc(-c2ccc(-c3cscn3)c(C)c2)n(-c2ccc(S(C)(=O)=O)cn2)n1` [Example 12] registered a melting point of 144 to 145 °C.

With `Cc1cc(-c2cc(C(F)(F)F)nn2-c2ccc(S(C)(=O)=O)cn2)ccc1-c1ccsc1` [Example 16], the melting point lay in the range of 165 to 166 °C.

The molecule `Cc1cc(-c2cc(C(F)(F)C(F)(F)F)nn2-c2ccc(S(C)(=O)=O)nc2)ccc1-c1cscn1` [Example 4] had a melting point of 120.8 °C.

`Cc1cc(-c2cc(C(F)(F)F)nn2-c2ccc(S(C)(=O)=O)cn2)c(C)cc1-c1cscn1` [Example 10]: the melting point lay within 214 to 215 °C.

Take `CCc1c(C(F)(F)F)nn(-c2ccc(S(C)(=O)=O)cn2)c1-c1ccc(-c2cscn2)c(C)c1` [Example 13]: the melting point lay within 163 to 164 °C.

Take `CS(=O)(=O)c1ccc(-n2nc(C(F)(F)F)cc2-c2ccc(-c3cscn3)cc2F)nc1` [Example 21]: the melting point came to 194.3 °C.

In the case of `CS(=O)(=O)c1ccc(-n2nc(C(F)(F)F)cc2-c2ccc(-c3cscn3)c(F)c2)nc1` [Example 24], the melting point came to 187.5 °C.

`Cc1cc(-c2cc(C(F)(F)F)nn2-c2ccc(S(C)(=O)=O)c(F)n2)ccc1-c1cscn1` [Example 25] yielded a melting point of 158.9 °C.

Turning to `CS(=O)(=O)c1ccc(-n2nc(C(F)(F)F)cc2-c2ccc(-c3cscn3)cc2Cl)nc1` [Example 22], the melting point worked out at 166.1 °C.

For the molecule `CS(=O)(=O)c1cnc(-n2nc(C(F)(F)F)cc2-c2ccc(-c3ccco3)cc2)s1` [Example 37], the melting point lay within 188 to 190 °C.

`CS(=O)(=O)c1ccc(-n2nc(C(F)(F)F)cc2-c2ccc(-c3ccco3)cc2)nn1` [Example 36] gave a melting point of 209 to 212 °C.

`Cc1cc(-c2cc(C(F)(F)F)nn2-c2ccc(S(C)(=O)=O)cn2)ccc1-c1cscn1` [Example 2] gave a melting point of 179 to 182 °C.

In turn, `Cc1cc(-c2c(Cl)c(C(F)(F)F)nn2-c2ccc(S(C)(=O)=O)nc2)ccc1-c1cscn1` [Example 5] displayed a melting point of 81 to 83 °C.

`Cc1cc(-c2cc(C(F)(F)F)nn2-c2ccc(S(C)(=O)=O)cn2)ccc1-c1ncco1` [Example 28] had a melting point of 174.5 to 176 °C.

Molecule `CS(=O)(=O)c1ccc(-n2nc(C(F)(F)F)cc2-c2ccc(-c3cscn3)cc2)nc1` [Example 18] came in with a melting point of 210 to 211 °C.

The molecule `CS(=O)(=O)c1ccc(-n2nc(C(F)(F)F)c(F)c2-c2ccc(-c3cscn3)cc2)cn1` [Example 7] returned a melting point of 170.5 to 171 °C.

The molecule `COc1cc(-c2cc(C(F)(F)F)nn2-c2ccc(S(C)(=O)=O)cn2)ccc1-c1cscn1` [Example 20] gave a melting point of 170 to 175 °C.

Regarding `Cc1cc(-c2cc(C(F)F)nn2-c2ccc(S(C)(=O)=O)cn2)ccc1-c1cscn1` [Example 27], the melting point was 156.9 °C.

Consider `Cc1cc(-c2c(C#N)cnn2-c2ccc(S(C)(=O)=O)cn2)ccc1-c1cscn1` [Example 11], for which the melting point lay within 223 to 224 °C.

Molecule `Cc1cc(-c2cc(C(F)(F)F)nn2-c2ccc(S(C)(=O)=O)cn2)ccc1-c1ccco1` [Example 15] came in with a melting point of 160 to 161.1 °C.

For the molecule `Cc1ccc(-c2ccc(-c3cc(C(F)(F)F)nn3-c3ccc(S(C)(=O)=O)nc3)cc2)s1` [Example 35], the melting point fell in the range of 123 to 124 °C.

For the origin of these results see patent US6649636B1, “Heteroaryl phenyl pyrazole compounds as anti-inflammatory/analgesic agents” (Pfizer Inc., priority 1999, dated 2003).
